Measurements taken from patent publication US6476243B1, “Perfluorinated esters of alkanoyl L-carnitine for the preparation of cationic lipids for the intracellular delivery of pharmacologically active compounds” (Sigma-Tau Industrie Farmaceutiche Riunite S.p.A., priority 1998, dated 2002).

How the values were obtained:
Assay type in all cases: cell-based, human
Details in all cases: for β-Gal: liposome-DNA complex, with serum
[1] = tested on: T98-G cells; experiment: pCMV-β-Gal plasmid DNA transfection mediated by ST1223 cationic liposomes, β-galactosidase by ELISA, T98-G cells
Procedure: (§1) Liposomes were prepared starting with 200 mg of ST1223, synthesised according to the procedure described in EXAMPLE 1 and solubilised in 50 mL of chloroform (solubilisation phase). The solvent was then eliminated under vacuum for one night (t 30-40° C.; 400-700 mm Hg). The sample was hydrated with deionised water to a final concentration of 5 mM (hydration phase). The liposomes were then subjected to sonication for 1 h at 10-second intervals using a sonication bath. The liposomes thus prepared produced unilaminar vesicles.
(§2) The liposome-DNA complex was prepared by mixing the two solutions A and B described here below:
(§3) Solution A: 2.5 μg of plasmid DNA (pCMV/β- Gal, 7200 base pairs, used for the expression of the enzyme β-galactosidase) were diluted sterilely in 50 μl of HBS (HEPES 20 mM; NaCl 150 mM, pH 7.4)
(§4) Solution B: the liposome, prepared according to EXAMPLE 7, was diluted in distilled H2O to a concentration of 1.29 mM and 15 μL of this solution were diluted in 50 µL of distilled H2O).
(§5) The two solutions were mixed by stirring gently and incubated for 10-30 min at room temperature.
(§6) pCMV-β-Gal DNA transfection mediated by cationic liposomes in the various cell lines HeLa, MCF-7, Caco2, and T98-G was performed at different cell densities: 100,000 cells/dish 200.000 cells/dish and 300.000 cells/dish.
(§7) HeLa, MCF-7, Caco2 and T98-G cells were grown for 48 h (37° C., 5% CO2) in the following growth media:
T98-G cells EMEM (Essential Minimum Eagle Medium, SIGMA catalogue), 10% fetal calf serum, 1% L-glutamine, 1% streptomycin, 1% penicillin.
(§8) Cells were plated at different densities (100.000 cells/dish, 200.000 cells/dish, 300.000 cells/dish) in Petri dishes (Corning or Falcon) measuring approximately 3 cm in diameter and incubated in 2 mL of medium for 18 h before being treated.
(§9) After replacing the medium with 2 mL of fresh medium, […] of the liposome-DNA complex, prepared as described in EXAMPLE 8, were added to each dish; after gentle stirring, the dishes were placed in a thermostat for 5 h (37° C., 5% CO2). Later, the cells were washed three times with 5 mL PBS buffer (Gibco catalogue) per dish and incubated for 16 h (37° C., 5% CO2).
(§10) After washing the cells three times with 5 mL PBS buffer (Gibco catalogue) per dish, total proteins were extracted and 50 μg of these were loaded per well in order to determine β-galactosidase production by immunoassay (β-Gal ELISA Kit, Boehringer).

[2] = tested on: MCF-7 cells; experiment: pCMV-β-Gal plasmid DNA transfection mediated by ST1223 cationic liposomes, β-galactosidase by ELISA, MCF-7 cells
Procedure: as §1, §2, §3, §4, §5, §6, §7
MCF-7 cells DMEM (Dulbecco Modified Eagle Medium, SIGMA catalogue), 10% fetal calf serum, 1% L-glutamine, 1% streptomycin, 1% penicillin
as §8, §9, §10

[3] = tested on: HeLa cells; experiment: pCMV-β-Gal plasmid DNA transfection mediated by ST1223 cationic liposomes, β-galactosidase by ELISA, HeLa cells
Procedure: as §1, §2, §3, §4, §5, §6, §7
HeLa cells RPMI-1640 (HyQ catalogue), 10% fetal calf serum, 1% L-glutamine, 1% streptomycin, 1% penicillin
as §8, §9, §10

[4] = tested on: Caco2 cells; experiment: pCMV-β-Gal plasmid DNA transfection mediated by ST1223 cationic liposomes, β-galactosidase by ELISA, Caco2 cells
Procedure: as §1, §2, §3, §4, §5, §6, §7
Caco2 cells EMEM (Essential Minimum Eagle Medium, SIGMA catalogue), 15% fetal calf serum, 1% L-glutamine, 1% streptomycin, 1%, penicillin
as §8, §9, §10

## CCCCCCCCCCC(=O)O[C@H](CC(=O)OCCC(F)(F)C(F)(F)C(F)(F)C(F)(F)C(F)(F)C(F)(F)C(F)(F)C(F)(F)F)C[N+](C)(C)C.[Cl-] [ST1223, undecanoyl-L-carnitine chloride 1,1H-2,2H-hepatdecafluorodecyl ester]
[1]
  cell density of greatest transfection efficiency: 300.000 cells/dish
[1]; density 100.000 cells/dish
  β-Gal: 126 pg/dish
[1]; density 200.000 cells/dish
  β-Gal: 330 pg/dish
[1]; density 300.000 cells/dish
  β-Gal: 491 pg/dish
[2]
  cell density of greatest transfection efficiency: 200.000 cells/dish
[2]; density 100.000 cells/dish
  β-Gal: 234 pg/dish
[2]; density 200.000 cells/dish
  β-Gal: 422 pg/dish
[2]; density 300.000 cells/dish
  β-Gal: 409 pg/dish
[3]
  cell density of greatest transfection efficiency: 200.000 cells/dish
[3]; density 100.000 cells/dish
  β-Gal: 87 pg/dish
[3]; density 200.000 cells/dish
  β-Gal: 303 pg/dish
[3]; density 300.000 cells/dish
  β-Gal: 83 pg/dish
[4]
  cell density of greatest transfection efficiency: 100.000 cells/dish
[4]; density 100.000 cells/dish
  β-Gal: 422 pg/dish
[4]; density 200.000 cells/dish
  β-Gal: 395 pg/dish
[4]; density 300.000 cells/dish
  β-Gal: 385 pg/dish
